Assay results as given in patent US20180369195A1, “COMBINATION THERAPY FOR TREATMENT OF MELANOMA” (The Regents of the University of California, priority 2015, published 2018).

How the values were obtained:
[1] = tested on: SK-MEL-24 cells; test: CCK-8 proliferation assay, SK-MEL-24; type: cell-based, human; conditions: 200 μM I3C, 72 hours; wild type BRAF
Protocol: Subsequently inhibition of proliferation was assessed using Cell counting Kit-8 (Dojindo) as per the protocol in the user's manual. Briefly, 50 μl of the CCK-8 solution was added to each well along with 450 μl media and incubated for 2-3 hours. The absorbance was read at 450 nm and % inhibition was calculated for each condition standardizing DMSO to zero using the formula: [(100-Value of treatment/Value of DMSO treated control)×100]

[2] = tested on: phosphorylated Erk/MAPK; test: Immunofluorescence of tumor xenograft sections for ERK-p; type: in vivo, human; conditions: I3C treated vs untreated animals
Protocol: Approximately 1 million G361 melanoma cells in a total volume of 0.1 ml of Matrigel were injected subcutaneously into each lateral flank of NIH III athymic nude mice. The resulting tumors were allowed to grow to a mean starting volume of 146±10 mm^3. The animals were then randomized into two groups; a vehicle control group that was treated with DMSO and an […] treated group that were injected daily with 200 mg/kg body weight of […]. The resulting tumor volumes were measured every other day for four weeks using calipers. The tumor volumes were calculated using the standard formula: […], and changes in tumor volumes were calculated using the formula: 100+{(Tf-Ti)/Ti×100}, where Tf is the final mean tumor volume and Ti is the initial mean tumor volume. At terminal sacrifice, tumor xenografts were harvested, and a portion of each tumor was fixed in 4% para-formaldehyde for 1 hour at room temperature, followed by a phosphate-buffered saline (PBS) wash and subsequently immersed in 3% sucrose overnight at 4° C. The resulting tissues were embedded in OCT and 10 μm thin sections were taken for immunofluorescence studies.

[3] = tested on: phosphorylated Erk/MAPK; test: Western blot of phosphorylated Erk/MAPK; type: cell-based, human; conditions: 200 μM I3C
Protocol: Western Blot analyses of samples electrophoretically fractionated on 12% acrylamide gels were carried out as previously described (Wagle et al., J. Clin. Oncol. 2011. 29(22):3085-3096; Nguyen et al., Chem. Biol. Interact. 2010. 186(3):255-266). […] The western blots employed the following primary antibodies: mouse anti-MITF-M (Thermo-scientific), mouse anti-HSP 90 (BD Biosciences), mouse anti-CDK2, rabbit anti-CDK4, rabbit anti-CDK-6, mouse anti-rabbit BRAF, goat anti-LEF-1, rabbit anti-AXIN, mouse anti-BCL2, (Santa Cruz), rabbit anti-P21, mouse anti-Cyclin D1, rabbit anti-MEK-p, rabbit anti-MEK1/2, rabbit anti-GSK3β rabbit anti-LRP6, rabbit anti-LRP6-phospho (Cell signaling), mouse anti-β-catenin (Invitrogen).

[4] = biological target: T1, BRAF-V600E (Homo sapiens, UniProt P15056, V600E); test: In vitro BRAF kinase assay, in-vitro treated BRAF-V600E from G-361 cells; type: biochemical; conditions: pre-incubated 2 hours; 200 μM or 400 μM I3C
T1 construct: BRAF-V600E was immunoprecipitated from untreated G-361 cells and incubated in vitro; endogenous in cells; host or cells: G-361 human melanoma cells (ATCC)
T1 sequence (P15056 whole entry V600E): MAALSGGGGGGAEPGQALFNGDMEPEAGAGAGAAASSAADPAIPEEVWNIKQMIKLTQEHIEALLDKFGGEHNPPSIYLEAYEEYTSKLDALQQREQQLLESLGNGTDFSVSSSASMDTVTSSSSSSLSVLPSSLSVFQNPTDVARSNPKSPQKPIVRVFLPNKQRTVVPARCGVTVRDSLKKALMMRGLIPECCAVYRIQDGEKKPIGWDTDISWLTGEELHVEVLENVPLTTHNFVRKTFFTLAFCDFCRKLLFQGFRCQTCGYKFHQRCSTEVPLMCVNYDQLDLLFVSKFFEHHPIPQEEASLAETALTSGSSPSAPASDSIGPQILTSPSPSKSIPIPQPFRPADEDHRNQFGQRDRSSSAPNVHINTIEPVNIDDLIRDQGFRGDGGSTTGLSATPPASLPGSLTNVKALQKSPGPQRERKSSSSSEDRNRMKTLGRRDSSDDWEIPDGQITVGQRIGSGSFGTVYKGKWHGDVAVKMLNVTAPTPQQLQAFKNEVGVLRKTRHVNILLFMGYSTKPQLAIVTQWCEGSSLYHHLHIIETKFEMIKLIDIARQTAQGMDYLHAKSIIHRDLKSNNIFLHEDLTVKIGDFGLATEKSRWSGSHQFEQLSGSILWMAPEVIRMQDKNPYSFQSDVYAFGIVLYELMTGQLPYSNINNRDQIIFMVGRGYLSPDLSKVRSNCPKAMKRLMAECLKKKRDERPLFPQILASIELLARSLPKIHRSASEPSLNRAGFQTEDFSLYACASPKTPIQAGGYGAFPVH
Protocol: BRAF was pulled down from the cell lysates using anti-BRAF antibodies bound to protein G-coupled Sepharose beads, while IgG was used as a negative control. Post-immunoprecipitation supernatants were probed with anti BRAF antibody by western blots to determine pull-down efficiency. […] The reactions were terminated by adding 4× sodium dodecyl sulfate (SDS) sample buffer and boiling the mixture at 100° C. for 5 min. The samples were then electrophoresed, immunoblotted and probed for relative protein levels of phosphorylated MEK and total MEK to assess the kinase activity of the immunoprecipitated BRAF.

[5] = tested on: CDK4; test: Western blot of CDK4; type: cell-based, human; conditions: G-361 cells, 48 hours; 200 μM I3C, 10 μM Vemurafenib or 10 μM U0126
Protocol: (§1) Western Blot analyses of samples electrophoretically fractionated on 12% acrylamide gels were carried out as previously described (Wagle et al., J. Clin. Oncol. 2011. 29(22):3085-3096; Nguyen et al., Chem. Biol. Interact. 2010. 186(3):255-266). Enhanced chemiluminescence (ECL) Lightening reagents were used to visualize the primary antibody bound protein bands in nitrocellulose membranes and the results captured on ECL Autoradiography Film (GE Healthcare, Piscataway, N.J.). The western blots employed the following primary antibodies: mouse anti-MITF-M (Thermo-scientific), mouse anti-HSP 90 (BD Biosciences), mouse anti-CDK2, rabbit anti-CDK4, rabbit anti-CDK-6, mouse anti-rabbit BRAF, goat anti-LEF-1, rabbit anti-AXIN, mouse anti-BCL2, (Santa Cruz), rabbit anti-P21, mouse anti-Cyclin D1, rabbit anti-MEK-p, rabbit anti-MEK1/2, rabbit anti-GSK3β rabbit anti-LRP6, rabbit anti-LRP6-phospho (Cell signaling), mouse anti-β-catenin (Invitrogen).

[6] = tested on: cultured human cancer cells; conditions: Wong et al. 1997; cited from earlier work
[7] = tested on: LEF1; test: Chromatin immunoprecipitation, LEF1 at MITF-M promoter; type: cell-based, human; conditions: G361 cells, 20 μM 1-benzyl I3C, 48 hours
[8] = tested on: GSK3β and Axin; test: Western blot of β-catenin destruction complex components; type: cell-based, human; conditions: melanoma cell lines, 20 μM 1-benzyl I3C
Protocol: as §1

[9] = tested on: multiple melanoma cell lines; test: Flow cytometry analysis of DNA content, multiple melanoma cell lines; type: cell-based, human
Protocol: Melanoma cells were treated with the indicated concentrations of 1-benzyl I3C in triplicates every 24 hours and harvested at the end of 24, 48 or 72 hours for cell cycle analysis. The DNA content of propidium iodide stained nuclei from harvested cells were determined by flow cytometry. Briefly, cells were hypotonically lysed in […] of DNA staining solution (0.5 mg/mL propidium iodide, 0.1% sodium citrate, and 0.05% Triton-X 100). Emitted fluorescence from the nuclear of wavelengths more than 585 nm was measured with a Coulter Elite instrument with laser output adjusted to deliver 15 mW at 488 nm. Ten thousand nuclei were analyzed from each sample at a rate of 300-500 nuclei/second. The percentage of cells within the G1, S, and G2/M phases of the cell cycle were determined by analysis with the Multicycle computer program provided by Phoenix Flow Systems in the Cancer Research Laboratory Microchemical Facility of the University of California, Berkeley.

[10] = tested on: β-catenin; test: Western blot of β-catenin; type: cell-based, human; conditions: G-361, DM-738, SK-MEL-2 cells, 20 μM 1-benzyl I3C, 24, 48 and 72 hours
Excerpt: The western blots employed the following primary antibodies: mouse anti-MITF-M (Thermo-scientific), mouse anti-HSP 90 (BD Biosciences), mouse anti-CDK2, rabbit anti-CDK4, rabbit anti-CDK-6, mouse anti-rabbit BRAF, goat anti-LEF-1, rabbit anti-AXIN, mouse anti-BCL2, (Santa Cruz), rabbit anti-P21, mouse anti-Cyclin D1, rabbit anti-MEK-p, rabbit anti-MEK1/2, rabbit anti-GSK3β rabbit anti-LRP6, rabbit anti-LRP6-phospho (Cell signaling), mouse anti-β-catenin (Invitrogen).

[11] = tested on: CDK 2, 4, 6; test: Western blot of key cell cycle regulators; type: cell-based, human; conditions: melanoma cell lines, 1-benzyl I3C, 24, 48, 72 hours
Protocol: as §1

## OCc1c[nH]c2ccccc12 [I3C, indole-3-carbinol]
[1]
  sensitivity to anti-proliferative effects: significantly less sensitive
[2]
  level of phosphorylated Erk/MAPK in tumor xenografts: strongly down regulated
[3]; G-361 and DM738 cells, 72 hour time course
  phosphorylated Erk/MAPK levels: strongly down regulated
[3]; G-361 cells, 48 hours, 10 μM Vemurafenib or 10 μM U0126
  phosphorylated Erk/MAPK levels: down regulated
[3]; SK-MEL-2 cells, 72 hour time course
  phosphorylated Erk/MAPK levels: no effect
[4]
  BRAF-V600E activity (phosphorylated MEK), direct in vitro incubation: strongly down regulated BRAF-V600E activity
[5]
  CDK4 protein levels: down regulated
[6]
  optimal concentration for the anti-proliferative effect: 200 µM

## OCc1cn(Cc2ccccc2)c2ccccc12 [1-benzyl I3C, 1-benzyl indole-3-carbinol]
[7]
  LEF1 interactions with the MITF-M promoter: significantly disrupted nuclear LEF1 interactions with this promoter
[8]
  GSK3β and Axin levels: upregulation
[9]; 20 μM 1-benzyl I3C, all the cell lines
  time to significant G1 cell cycle arrest: ≤ 24 h
[9]; varying doses of 1-benzyl I3C, 48 hours
  G1 cell cycle arrest: significant G1 cell cycle arrest
[10]
  β-catenin protein levels: significantly downregulated
[11]
  levels of key cell cycle regulators: downregulation of key cell cycle regulators like CDK 2, 4, 6
